Laboratory results taken from patent US7482371B2, “N-phenylbenzamide derivatives as drugs for the treatment of COPD” (Rottapharm S.p.A., priority 2004, dated 2009).

Key:
[1] = system: newborn rat cultured DRG neurons; experiment: [Ca2+]i mobilization in cultured DRG neurons (Fura-2); assay type: cell-based
Experimental: Dorsal root ganglia (DRG) were removed from 1-3 days old rats and dissociated into single cells according to well established procedures. Cells, plated on coated glass coverslips were loaded with Fura-2-AM-ester to detect relative intracellular calcium ([Ca^2+]i) changes.
During the Ca^2+ fluorescence the cells were excited with electrical stimulation (10 Hz, 1 ms, 0.40 mA/cm^2 for 10 sec) twice with a resting period between each stimulation of 20 min. These experiments were performed in the presence or absence of 100 nM charybdotoxin.

[2] = system: slices of rat dorsal spinal cord; experiment: CGRP-LI outflow from slices of rat dorsal spinal cord (EIA); assay type: cell-based
Experimental: (§1) Slices of guinea pig trachea and bronchi or of rat dorsal spinal cord were prepared and transferred to perfusion chambers and perfused. After an equilibration period, samples were collected before, during and after the delivery of an excitatory stimulus (KCl 80 mM). The effect of Andolast was compared with the effect of its vehicle. CGRP-like immunoreactivity (GCRP-LI) was measured by enzyme immunoassay (EIA).
In the rat dorsal spinal cord the experiments with Andolast were performed also in the presence of 100 nM charybdotoxin.

[3] = system: slices of guinea pig airways; experiment: CGRP-LI outflow from slices of guinea pig airways (EIA); assay type: cell-based
Experimental: as §1

[4] = system: guinea pig isolated bronchial rings; experiment: eNANC contractile response of isolated guinea pig bronchial rings; assay type: cell-based
Experimental: Guinea pig bronchial rings were mounted in organ baths. After an equilibration period the eNANC contractile response to EFS (5 Hz, 20 sec, 0.5 ms pulse width at 40 V) in the presence of atropine (1 μM) was studied. The effects of Andolast or its vehicle on the eNANC were studied in parallel experiments in the presence or absence of 100 nM charybdotoxin. The ability of Andolast to affect the direct bronchoconstrictor activity of SP was also studied.

[5] = system: human B lymphocytes from allergic donors; experiment: IL-4 dependent IgE synthesis by human B lymphocytes; assay type: cell-based
T lymphocytes (Th2) = experiment: Treatment course in atopic mild-moderate asthmatic patients; assay type: in vivo, human; conditions: standard treatment course

In the case of `O=C(Nc1ccc(-c2nn[nH]n2)cc1)c1ccc(-c2nn[nH]n2)cc1` [Andolast, N-4-(1H-tetrazol-5-yl)phenyl-4-(1H-tetrazol-5-yl)benzamide], the “inhibitory effect on EFS-induced [Ca2+]i mobilization in presence of charybdotoxin” value ([1]; 100 nM charybdotoxin (ChTX)) is reported as “completely reversed”, the “response to capsaicin ([Ca2+]i)” value ([1]; capsaicin 0.1 μM, pretreatment with Andolast 10 μM) is reported as “not affected” and the “mobilization of [Ca2+]i in response to ionomycin” value ([1]; pre-treatment with Andolast 10 μM or its vehicle) is reported as “similar”. For the same compound, the “response to EFS ([Ca2+]i mobilization)” value ([1]; pretreatment with Andolast compared to vehicle, EFS 10 Hz, 1 ms, 0.40 mA/cm2 for 10 sec) was “diminished the response to EFS”, the “inhibition of high K+ induced CGRP-LI outflow in presence of charybdotoxin” value ([2]; 100 nM charybdotoxin) was “completely abrogated” and the “maximum inhibition of the outflow of CGRP-LI induced by high K+ medium” value ([2]; Andolast 1 μM, KCl 80 mM) was 48 % of vehicle. For the same compound, the “outflow of CGRP-LI (without stimulus)” value ([2]; Andolast 0.1-1 μM, rat dorsal spinal cord slices) was “did not cause any significant increase”, the “outflow of CGRP-LI induced by high K+ medium” value ([2]; KCl 80 mM, rat dorsal spinal cord slices) was “concentration-dependent inhibition” and the “outflow of CGRP-LI (without stimulus)” value ([3]; Andolast 0.1-1 μM, guinea pig airway slices) was “did not cause any significant increase”. For the same compound, the inhibition at 1 µM ([3]; Cavia porcellus, Andolast 1 μM, KCl 80 mM, read-out: inhibition of the CGRP-LI outflow induced by high K+ medium) was 67%, the “contractile response to SP” value ([4]; Andolast 10 μM) was “did not affect” and the inhibition at 10 µM ([4]; Cavia porcellus, 10 μM Andolast, atropine 1 μM, read-out: maximum inhibition of the contractile response to EFS) was 45%. The “effect on EFS contraction in presence of charybdotoxin” value ([4]; charybdotoxin 0.1 μM) was “completely abrogated”, the “contractile response to EFS (eNANC)” value ([4]; in the presence of atropine (1 μM), pretreatment with Andolast) was “diminished dose-dependently” and the “IL-4 dependent IgE synthesis” value [5] was “potent inhibitory effect”. For the same compound, the “T lymphocytes (Th2) production of IL-5” value (T lymphocytes (Th2)) was “inhibitory effect” and the “percentage of eosinophils in the sputum” value (T lymphocytes (Th2)) was “decrease”.
